The record followed here is ChEMBL document CHEMBL6178009, “Targeted Degradation of BCL6 Using Novel Bifunctional Degraders: A New Therapeutic Strategy for BCL6-Positive Cancers” (ACS Med Chem Lett, 2025).

Test [1] concerns the target Protein cereblon/B-cell lymphoma 6 protein (Homo sapiens, UniProt P41182+Q96SW2). As to the kind of experiment: PROTAC activity at CRBN/N-terminal HiBit-tagged BCL6 in human HT-1080 cells transfected with pLV-UBC-N-HiBiT- BCL6-PGK-puro assessed as degradation of BCL6 incubated for 5 hrs by luminescence based NANO-Glo HIBiT lytic detection assay. It counts as cell-based.

Test [2] has as its target Protein cereblon/B-cell lymphoma 6 protein (Homo sapiens) (UniProt Q96SW2+P41182). As to the kind of experiment: PROTAC activity at CRBN/N-terminal HiBit-tagged BCL6 in human HT-1080 cells transfected with pLV-UBC-N-HiBiT- BCL6-PGK-puro assessed as degradation of BCL6 by measuring ratio of trough concentration of protein in cell compared to the concentration of protein before the cell contact with compound (Ymin) incubated for 5 hrs by luminescence based NANO-Glo HIBiT lytic detection assay relative to control.

On to `CNC(=O)COc1cc2cc(Nc3nc(N4CCN(CC5CCN(c6cccc7c(C8CCC(=O)NC8=O)nn(C)c67)CC5)CC4)ncc3Cl)cc3c2n(c1=O)CCO3` (configuration not stated), for which the EC50 (usually the midpoint of the concentration-response curve) in test [1] was no more than 25 nM. The Emin in test [2] is less than 30%.
The matching figures for `CNC(=O)COc1cc2cc(Nc3nc(N4CCN(CC5CCN(c6ccc7c(C8CCC(=O)NC8=O)nn(C)c7c6)CC5(F)F)C(C)C4)ncc3Cl)cnc2n(C(C)C)c1=O` (configuration not stated): no more than 25 nM and 30%.
`CNC(=O)COc1cc2cc(Nc3nc(N4CCC5(CCN(CC6CCN(c7cc8c(cc7F)c(C7CCC(=O)NC7=O)nn8C)CC6)CC5)CC4)ncc3Cl)cnc2n(C)c1=O` (configuration not stated): in test [1], the EC50 is no more than 25 nM. For the same compound, the Emin in test [2] is less than 30%.
As for `CNC(=O)COc1cc2cc(Nc3nc(N4CCC(CN5CCC(c6ccc7c(C8CCC(=O)NC8=O)nn(C)c7c6F)CC5)CC4)ncc3Cl)cc3c2n(c1=O)[C@@H](C)CO3` (some centres not stated), the EC50 in test [1] was no more than 25 nM. Besides, the Emin in test [2] was less than 30%.
Taken in the same sequence, the figures for `CNC(=O)COc1cc2cc(Nc3nc(N4CC[C@@H](CN5CCN(c6cccc7c(C8CCC(=O)NC8=O)nn(C)c67)CC5)[C@@H](C)C4)ncc3Cl)cc3c2n(c1=O)CCO3` (some centres not stated) were no more than 25 nM and less than 30%.
For `CNC(=O)COc1cc2cc(Nc3nc(N4CCC5(CC4)CCN([C@H](C)C4CCN(c6ccc7c(C8CCC(=O)NC8=O)nn(C)c7c6)CC4)CC5)ncc3Cl)cnc2n(C)c1=O` (some centres not stated), the half-maximal effective concentration (EC50) in test [1] is no more than 25 nM. In test [2], the Emin is less than 30%.
